Experimental data as given in the supplement of paper PMC10307832.

Legend:
Test in all cases: relative viability (nuclei count vs DMSO), 5 days (fraction); higher = more cells survive
[1] = compound: CC1=C(N=C(N=C1N)[C@H](CC(=O)N)NC[C@@H](C(=O)N)N)C(=O)N[C@@H]([C@H](C2=CN=CN2)OC3C(C(C(C(O3)CO)O)O)OC4C(C(C(C(O4)CO)O)OC(=O)N)O)C(=O)N[C@H](C)[C@H]([C@H](C)C(=O)N[C@@H]([C@@H](C)O)C(=O)NCCC5=NC(=CS5)C6=NC(=CS6)C(=O)NCCC[S+](C)C)O [Bleomycin] + Nc1nc2[nH]cc(CCc3ccc(C(=O)N[C@@H](CCC(=O)O)C(=O)O)cc3)c2c(=O)[nH]1 [Pemetrexed] (partner 0.2 µM); conditions: main component drawn
How it was run: (§1)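 Cells from lung cancer lines were seeded into 1536-well plates and, one day later, dosed by pin tool. Treatments were either a single drug or a fixed dose of an anchor drug with five library-drug doses (not always all listed) in √10 steps. After 5 days, nuclei were stained in a one-step fixation (final 0.05% Triton X-100, 1% formaldehyde, 1 ug/ml Hoechst) and counted on 4× images, and relative viability is the treated-to-vehicle nuclei ratio, as the median of duplicate plates.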

[2] = compound: COc1cc([C@@H]2c3cc4c(cc3[C@@H](O[C@@H]3O[C@@H]5CO[C@@H](C)O[C@H]5[C@H](O)[C@H]3O)[C@H]3COC(=O)[C@H]23)OCO4)cc(OC)c1O [Etoposide] + CC(=O)Nc1cccc(-n2c(=O)n(C3CC3)c(=O)c3c(Nc4ccc(I)cc4F)n(C)c(=O)c(C)c32)c1 [Trametinib] (partner 0.02 µM)
How it was run: as §1

[3] = compound: COc1cc([C@@H]2c3cc4c(cc3[C@@H](O[C@@H]3O[C@@H]5CO[C@@H](C)O[C@H]5[C@H](O)[C@H]3O)[C@H]3COC(=O)[C@H]23)OCO4)cc(OC)c1O [Etoposide] + COc1cc2c(Oc3ccc(NC(=O)C4(C(=O)Nc5ccc(F)cc5)CC4)cc3F)ccnc2cc1OCCCN1CCOCC1 [Foretinib] (partner 0.25 µM)
How it was run: as §1

[4] = compound: COc1cc([C@@H]2c3cc4c(cc3[C@@H](O[C@@H]3O[C@@H]5CO[C@@H](C)O[C@H]5[C@H](O)[C@H]3O)[C@H]3COC(=O)[C@H]23)OCO4)cc(OC)c1O [Etoposide] + Nc1nc2[nH]cc(CCc3ccc(C(=O)N[C@@H](CCC(=O)O)C(=O)O)cc3)c2c(=O)[nH]1 [Pemetrexed] (partner 0.2 µM)
How it was run: as §1

Cell Line | relative viability ([1]; first compound 0.01 µM) | relative viability ([1]; first compound 0.03162 µM) | relative viability ([1]; first compound 0.1 µM) | relative viability ([1]; first compound 0.3162 µM) | relative viability ([1]; first compound 1 µM) | relative viability ([2]; first compound 0.01 µM) | relative viability ([2]; first compound 0.03162 µM) | relative viability ([2]; first compound 0.1 µM) | relative viability ([2]; first compound 0.3162 µM) | relative viability ([2]; first compound 1 µM) | relative viability ([3]; first compound 0.01 µM) | relative viability ([3]; first compound 0.03162 µM) | relative viability ([3]; first compound 0.1 µM) | relative viability ([3]; first compound 0.3162 µM) | relative viability ([3]; first compound 1 µM) | relative viability ([4]; first compound 0.01 µM) | relative viability ([4]; first compound 0.03162 µM) | relative viability ([4]; first compound 0.1 µM) | relative viability ([4]; first compound 0.3162 µM) | relative viability ([4]; first compound 1 µM)
COR-L 105 | 0.949 | 1.06 | 0.971 | 0.468 | 0.573 | 0.443 | 0.479 | 0.439 | 0.437 | 0.398 | 0.926 | 1.3 | 1.02 | 1.02 | 0.645 | 1.03 | 1.02 | 1.27 | 0.836 | 0.844
LK-2 | 0.243 | 0.252 | 0.204 | 0.146 | 0.133 | 0.688 | 0.861 | 0.498 | 0.438 | 0.2 | 0.879 | 1.17 | 0.933 | 0.912 | 0.401 | 0.36 | 0.315 | 0.208 | 0.224 | 0.186
201T | 0.332 | 0.283 | 0.303 | 0.281 | 0.271 | 0.73 | 0.76 | 0.707 | 0.602 | 0.544 | 0.981 | 0.931 | 1.1 | 0.778 | 0.425 | 0.325 | 0.343 | 0.355 | 0.318 | 0.32
NCI-H647 | 0.198 | 0.153 | 0.196 | 0.0716 | 0.0627 | 0.309 | 0.546 | 0.351 | 0.405 | 0.134 | 1.02 | 1.25 | 1.21 | 0.654 | 0.271 | 0.173 | 0.161 | 0.188 | 0.121 | 0.121
H3255 | 0.608 | 0.538 | 0.507 | 0.479 | 0.405 | 0.578 | 0.707 | 0.411 | 0.57 | 0.347 | 0.974 | 0.897 | 0.603 | 0.674 | 0.457 | 0.541 | 0.619 | 0.564 | 0.536 | 0.404
NCI-H650 | 0.708 | 0.951 | 0.78 | 0.479 | 0.34 | 0.884 | 0.951 | 0.681 | 0.527 | 0.195 | 0.961 | 0.913 | 0.682 | 0.606 | 0.288 | 0.901 | 1.01 | 0.608 | 0.673 | 0.347
NCI-H2023 | 0.178 | 0.204 | 0.157 | 0.136 | 0.0973 | 0.448 | 0.647 | 0.559 | 0.452 | 0.186 | 0.987 | 0.886 | 0.814 | 0.352 | 0.218 | 0.241 | 0.272 | 0.182 | 0.156 | 0.143
